Experimental data published in the supplement of paper PMC10627819.

Key:
B. subtilis 168 [1] = assay: fitness (endpoint OD595 vs no drug) (fraction); higher = more growth
Outline: (§1)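 Cultures at OD595 0.01 were dispensed into 384-well plates in TSB, LB Lennox or CY and incubated at 37 °C. Every 30 min for 14 h, OD595 was read and corrected by the first reading. Fitness is the optical density at entry into stationary phase relative to the robust mean of no-drug control wells, capped at 1.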

S. pneumoniae D39V [2] = assay: as above
Outline: as §1

B. subtilis 168 [3] = assay: Bliss interaction score (quartile over a dose matrix) (fitness difference); higher = more antagonism (negative = synergy)
Outline: (§2)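 Quartiles of the Bliss score were taken over technical, biological and donor/recipient replicates. That score is observed fitness minus the product of the single-drug fitness values, which were inferred from combination data. Fitness itself is OD595 at entry into stationary phase divided by the plate's robust no-drug mean, with a cap at 1.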

S. aureus DSM 20231 = assay: as above
Outline: as §2

S. aureus Newman = assay: as above
Outline: as §2

S. pneumoniae D39V [4] = assay: as above
Outline: as §2
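For Bliss interaction score (quartile over a dose matrix) in this document: first quartile when negative (synergy) and third quartile when positive (antagonism).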

## C[C@H]1c2cccc(O)c2C(=O)C2=C(O)[C@]3(O)C(=O)C(C(N)=O)=C(O)[C@@H](N(C)C)[C@@H]3[C@@H](O)[C@@H]21 [Doxycycline] + CC(=O)NC[C@H]1CN(c2ccc(N3CCOCC3)c(F)c2)C(=O)O1 [Linezolid]
B. subtilis 168 [1]; first compound 0.02 µg/mL, partner 0.0625 µg/mL, one replicate
  fitness: 0.775
B. subtilis 168 [1]; first compound 0.02 µg/mL, partner 0.5 µg/mL
  fitness: 0.0524
B. subtilis 168 [1]; first compound 0.04 µg/mL, partner 0.0625 µg/mL, one replicate
  fitness: 0.51
B. subtilis 168 [1]; first compound 0.04 µg/mL, partner 0.5 µg/mL
  fitness: 0.0497
B. subtilis 168 [1]; first compound 0.08 µg/mL, partner 0.0625 µg/mL, one replicate
  fitness: 0.0619
B. subtilis 168 [1]; first compound 0.08 µg/mL, partner 0.25 µg/mL
  fitness: 0.0313
B. subtilis 168 [1]; first compound 0.08 µg/mL, partner 0.5 µg/mL
  fitness: 0.0418
S. pneumoniae D39V [2]; first compound 0.003875 µg/mL, partner 0.2 µg/mL, one replicate
  fitness: 0.796
S. pneumoniae D39V [2]; first compound 0.003875 µg/mL, partner 0.4 µg/mL, one replicate
  fitness: 0.7
S. pneumoniae D39V [2]; first compound 0.003875 µg/mL, partner 0.8 µg/mL, one replicate
  fitness: 0.353
S. pneumoniae D39V [2]; first compound 0.00775 µg/mL, partner 0.2 µg/mL, one replicate
  fitness: 0.774
S. pneumoniae D39V [2]; first compound 0.00775 µg/mL, partner 0.4 µg/mL, one replicate
  fitness: 0.65
S. pneumoniae D39V [2]; first compound 0.00775 µg/mL, partner 0.8 µg/mL, one replicate
  fitness: 0.37
S. pneumoniae D39V [2]; first compound 0.0155 µg/mL, partner 0.105 µg/mL
  fitness: 0.702
S. pneumoniae D39V [2]; first compound 0.0155 µg/mL, partner 0.2 µg/mL
  fitness: 0.776
S. pneumoniae D39V [2]; first compound 0.0155 µg/mL, partner 0.21 µg/mL
  fitness: 0.595
S. pneumoniae D39V [2]; first compound 0.0155 µg/mL, partner 0.4 µg/mL
  fitness: 0.575
S. pneumoniae D39V [2]; first compound 0.0155 µg/mL, partner 0.42 µg/mL
  fitness: 0.406
S. pneumoniae D39V [2]; first compound 0.0155 µg/mL, partner 0.8 µg/mL
  fitness: 0.325
S. pneumoniae D39V [2]; first compound 0.031 µg/mL, partner 0.105 µg/mL
  fitness: 0.694
S. pneumoniae D39V [2]; first compound 0.031 µg/mL, partner 0.2 µg/mL, one replicate
  fitness: 0.668
S. pneumoniae D39V [2]; first compound 0.031 µg/mL, partner 0.21 µg/mL
  fitness: 0.602
S. pneumoniae D39V [2]; first compound 0.031 µg/mL, partner 0.4 µg/mL, one replicate
  fitness: 0.4
S. pneumoniae D39V [2]; first compound 0.031 µg/mL, partner 0.42 µg/mL
  fitness: 0.297
S. pneumoniae D39V [2]; first compound 0.031 µg/mL, partner 0.8 µg/mL, one replicate
  fitness: 0.24
S. pneumoniae D39V [2]; first compound 0.062 µg/mL, partner 0.105 µg/mL
  fitness: 0.606
S. pneumoniae D39V [2]; first compound 0.062 µg/mL, partner 0.2 µg/mL, one replicate
  fitness: 0.465
S. pneumoniae D39V [2]; first compound 0.062 µg/mL, partner 0.21 µg/mL
  fitness: 0.477
S. pneumoniae D39V [2]; first compound 0.062 µg/mL, partner 0.4 µg/mL, one replicate
  fitness: 0.241
S. pneumoniae D39V [2]; first compound 0.062 µg/mL, partner 0.42 µg/mL
  fitness: 0.207
S. pneumoniae D39V [2]; first compound 0.062 µg/mL, partner 0.8 µg/mL, one replicate
  fitness: 0.116
B. subtilis 168 [3]
  Bliss interaction score: -0.137
S. aureus DSM 20231
  Bliss interaction score: -0.0188
S. aureus Newman
  Bliss interaction score: -0.0282
S. pneumoniae D39V [4]
  Bliss interaction score: -0.197

## O=C(O)c1cn(C2CC2)c2cc(N3CCNCC3)c(F)cc2c1=O [Ciprofloxacin] + CC(=O)NC[C@H]1CN(c2ccc(N3CCOCC3)c(F)c2)C(=O)O1 [Linezolid]
B. subtilis 168 [1]; first compound 0.0098 µg/mL, partner 0.0625 µg/mL, one replicate
  fitness: 0.889
B. subtilis 168 [1]; first compound 0.0195 µg/mL, partner 0.0625 µg/mL, one replicate
  fitness: 0.856
B. subtilis 168 [1]; first compound 0.0195 µg/mL, partner 0.125 µg/mL
  fitness: 0.609
B. subtilis 168 [1]; first compound 0.0195 µg/mL, partner 0.5 µg/mL
  fitness: 0.334
B. subtilis 168 [1]; first compound 0.039 µg/mL, partner 0.0625 µg/mL, one replicate
  fitness: 0.417
B. subtilis 168 [1]; first compound 0.039 µg/mL, partner 0.125 µg/mL
  fitness: 0.394
B. subtilis 168 [1]; first compound 0.039 µg/mL, partner 0.5 µg/mL
  fitness: 0.263
S. pneumoniae D39V [2]; first compound 0.125 µg/mL, partner 0.105 µg/mL
  fitness: 0.788
S. pneumoniae D39V [2]; first compound 0.125 µg/mL, partner 0.2 µg/mL
  fitness: 0.567
S. pneumoniae D39V [2]; first compound 0.125 µg/mL, partner 0.21 µg/mL
  fitness: 0.712
S. pneumoniae D39V [2]; first compound 0.125 µg/mL, partner 0.4 µg/mL
  fitness: 0.298
S. pneumoniae D39V [2]; first compound 0.125 µg/mL, partner 0.42 µg/mL
  fitness: 0.536
S. pneumoniae D39V [2]; first compound 0.125 µg/mL, partner 0.8 µg/mL
  fitness: 0.146
S. pneumoniae D39V [2]; first compound 0.25 µg/mL, partner 0.105 µg/mL
  fitness: 0.776
S. pneumoniae D39V [2]; first compound 0.25 µg/mL, partner 0.2 µg/mL, one replicate
  fitness: 0.442
S. pneumoniae D39V [2]; first compound 0.25 µg/mL, partner 0.21 µg/mL
  fitness: 0.7
S. pneumoniae D39V [2]; first compound 0.25 µg/mL, partner 0.4 µg/mL, one replicate
  fitness: 0.28
S. pneumoniae D39V [2]; first compound 0.25 µg/mL, partner 0.42 µg/mL
  fitness: 0.551
S. pneumoniae D39V [2]; first compound 0.25 µg/mL, partner 0.8 µg/mL, one replicate
  fitness: 0.154
S. pneumoniae D39V [2]; first compound 0.5 µg/mL, partner 0.105 µg/mL
  fitness: 0.61
S. pneumoniae D39V [2]; first compound 0.5 µg/mL, partner 0.2 µg/mL
  fitness: 0.443
S. pneumoniae D39V [2]; first compound 0.5 µg/mL, partner 0.21 µg/mL
  fitness: 0.569
S. pneumoniae D39V [2]; first compound 0.5 µg/mL, partner 0.4 µg/mL
  fitness: 0.252
S. pneumoniae D39V [2]; first compound 0.5 µg/mL, partner 0.42 µg/mL
  fitness: 0.414
S. pneumoniae D39V [2]; first compound 0.5 µg/mL, partner 0.8 µg/mL
  fitness: 0.119
B. subtilis 168 [3]
  Bliss interaction score: 0.247
S. aureus DSM 20231
  Bliss interaction score: 0.0785
S. aureus Newman
  Bliss interaction score: 0.081
S. pneumoniae D39V [4]
  Bliss interaction score: 0.0563
